{
  "source": "patent US20100063004A1",
  "about": "“TOPICAL PHARMACEUTICAL COMPOSITION” (priority 2006, published 2010)",
  "origin": "cited, not measured here",
  "key": {"[1]": {"test_system": "lipid enveloped viruses such as herpes"}, "[2]": {"test_system": "herpes labialis (HSV-1)", "conditions": "10% n-docosanol suspended in an aqueous system containing a non-ionic surfactant and a carrier; humans with herpes labialis (HSV-1)"}, "[3]": {"test_system": "enlargement of the prostate gland", "conditions": "taken orally"}},
  "data": [
    {"smiles": "CCCCCCCCCCCCCCCCCCCCCCO", "note": "[n-docosanol]", "values": [
      {"measurement": "activity in cell cultures against lipid enveloped viruses", "setting": "[1]", "result": "broad activity"},
      {"measurement": "mean healing time of lesions", "setting": "[2]", "result": "shortened"},
      {"measurement": "therapeutic effect in enlargement of the prostate gland", "setting": "[3]", "result": "therapeutically effective"},
      {"measurement": "solubility in water", "result": "insoluble"}
    ]}
  ]
}
